The results in this text go back to ChEMBL document CHEMBL5727173, “Phenyl-(aza)cycloalkyl carboxylic acid GPR120 modulators” (2019).

In the test the target is T1, Free fatty acid receptor 4 (Homo sapiens, UniProt Q5NUL3).
T1 sequence (Q5NUL3 whole entry): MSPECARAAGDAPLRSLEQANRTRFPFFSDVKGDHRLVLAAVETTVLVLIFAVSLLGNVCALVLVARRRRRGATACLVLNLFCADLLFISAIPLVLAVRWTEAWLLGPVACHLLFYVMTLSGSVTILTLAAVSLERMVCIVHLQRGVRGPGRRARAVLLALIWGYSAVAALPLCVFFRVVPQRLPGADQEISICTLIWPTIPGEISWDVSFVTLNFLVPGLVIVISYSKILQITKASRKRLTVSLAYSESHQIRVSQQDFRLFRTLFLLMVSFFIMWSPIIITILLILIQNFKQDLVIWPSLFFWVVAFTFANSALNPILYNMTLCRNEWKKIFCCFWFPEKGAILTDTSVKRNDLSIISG
As to the kind of experiment: GPR120 pERK AlphaScreen SureFire Assay: The human and mouse GPR120-mediated intracellular phosphorylated ERK assays were also established using CHO-K1 cells stably transfected with the short form of human or mouse GPR120 receptor. Cells were cultured in growth medium consisting of F-12 media (Invitrogen Cat. #11765) with 5% Charcoal/Dextran FBS (Invitrogen Cat. #12676-029) and 500 μg/mL GENETICIN® (Life Technologies Cat. #10131-027). Cells were cryo preserved at a concentration of 3×10^6 cells/mL, in 70% F-12, 20% Charcoal/Dextran FBS and 10% DMSO, and frozen in liquid nitrogen at a low passage number.For the pERK assay, 3×10^6 cells/mL cryopreserved human and mouse cells were thawed rapidly in a 37° C. water bath and added to a T-225 flask containing 50 mL growth medium. The flasks were placed in a tissue culture incubator overnight (37° C., 5% CO2). The next day, cells were harvested with trypsin (Gibco Cat. #25300-054), resuspended in serum-containing growth medium and counted using a Cellometer and volume adjusted to a concentration of 0.5×10^6 cells/mL. Cells were plated into 384-well clear bottom tissue culture plates (BD Cat. #353962) at 50 μL/well, for a density of 25,000 cells/well using a MULTIDROP® and incubated for 16-18 hours (overnight) at 37° C. with 5% CO2. The next day, cells were washed once with 50 μL of PBS without Ca++/Mg++ (Gibco Cat. #14190-036) and serum starved in 25 μL of F-12 media without any serum or antibiotics for 2 hours at 37° C. The class given is cell-based.
As for `O=C(O)CCCCc1ccc(N2CCC[C@@H](Oc3ccccc3)C2)cc1`, the EC50 is 780 nM. With `O=C(O)CCCCc1ccc(N2CCCCC(Oc3ccc(F)cc3)C2)cc1` (stereo not given) the figure was 3550 nM. To `O=C(O)CCCCc1ccc(N2CCCC(Oc3ccccc3)C2)cc1` (stereo not given) belongs 420 nM. Take `O=C(O)CCCCc1ccc(C2CCCC(Nc3ccccc3)C2)cc1` (stereo not given): the EC50 came out at 3030 nM. With `O=C(O)COCCc1ccc(N2CCCC(Oc3ccccc3)C2)cc1` (stereo not given), the EC50 is 2420 nM.

The EC50 is the concentration that produces a half-maximal response.
